Measurements from US9655888B2, “Tricyclic alkene derivatives as HIV attachment inhibitors” (priority 2012, dated 2017).
Read-outs that look alike come from different tables or passages of the source.

Tested on: HIV-1 LAI envelope single-round infectious reporter virus
Test: Single-round infectious HIV-1 LAI luciferase reporter virus infection of MT2 cells
Assay type: cell-based
Conditions: Human immunodeficiency virus 1, MT2, 72 h
From the text: • Virus production—Human embryonic Kidney cell line, 293T (HEK 293T), was propagated in Dulbecco's Modified Eagle Medium (Invitrogen, Carlsbad, Calif.) containing 10% fetal bovine serum (FBS, Sigma, St. Louis, Mo.). The human T-cell leukemia cell MT2 (AIDS Research and Reference Reagent Program, Cat. 237) was propagated in RPMI 1640 (Invitrogen, Carlsbad, Calif.) containing 10% fetal bovine serum (FBS, Hyclone, Logan, Utah) • Virus infection—Single-round infectious reporter virus was produced by co-transfecting HEK 293T cells with plasmide expressing the HIV-1 LAI envelope along with a plasmid containing an HIV-1 LAI proviral cDNA with the envelope gene replaced by a firefly luciferase reporter gene (Chen et al., Ref 41). Transfections were performed using lipofectAMINE PLUS reagent as described by the manufacturer (Invitrogen, Carlsbad, Calif.). Experimental Procedure • 1. MT2 cells were plated in black, 384 well plates at a cell density of 5×10^3 cells per well in 25 μl RPMI 1640 containing 10% FBS. • 2. Compound (diluted in dimethylsulfoxide and growth medium) was added to cells at 12.5 μl/well, so that the final assay concentration would be ≦50 nM. • 3. 12.5 μl of single-round infectious reporter virus in Dulbecco's Modified Eagle Medium was added to the plated cells and compound at an approximate multiplicity of infection (MOI) of 0.01, resulting in a final volume of 50 μl per well. • 4. Virus-infected cells were incubated at 37 degrees Celsius in a CO2 incubator and harvested 72 h after infection. • 5. Viral infection was monitored by measuring luciferase expression in the infected cells using a luciferase reporter gene assay kit (Steady-Glo, Promega, Madison, Wis.) as described by the manufacturer. Luciferase activity was then quantified by measuring luminescence using an EnVision Multilabel Plate Readers (PerkinElmer, Waltham, Mass.). • 6. The percent inhibition for each compound was calculated by quantifying the level of luciferase expression in cells infected in the presence of each compound as a percentage of that observed for cells infected in the absence of compound and subtracting such a determined value from 100. • 7. An EC50 provides a method for comparing the antiviral potency of the compounds of the invention. The effective concentration for fifty percent inhibition (EC50) was calculated with the Microsoft Excel Xlfit curve fitting software. For each compound, curves were generated from percent inhibition calculated at 10 different concentrations by using a four parameter logistic model (model 205). Table 1 is the key for the data in Table 2.

[1] = read-out: EC50 Group from Table 1

SMILES: COc1cnc(-n2cnc(C)n2)c2[nH]cc(C(=O)C(=O)N3CCC(=C4c5ccccc5C=Cc5ccccc54)CC3)c12 [Compound 1001]
- EC50: 0.28 nM
- EC50 [1]: < 500 nM

SMILES: COc1cnc(Cl)c2[nH]cc(C(=O)C(=O)N3CCC(=C4c5ccc(Cl)cc5CCc5cccnc54)CC3)c12 [Compound 1002]
- EC50 [1]: < 500 nM

SMILES: O=C(C(=O)N1CCC(=C2c3ccccc3CCc3ccccc32)CC1)c1c[nH]c2ccccc12 [Compound 1003]
- EC50: 692 nM
- EC50 [1]: > 500 nM

SMILES: COc1cnc(Cl)c2[nH]cc(C(=O)C(=O)N3CCC(=C4c5ccccc5CCc5ccccc54)CC3)c12 [Compound 1004]
- EC50 [1]: < 500 nM

SMILES: COc1cnc(-n2cncn2)c2[nH]cc(C(=O)C(=O)N3CCC(=C4c5ccccc5CCc5ccccc54)CC3)c12 [Compound 1005]
- EC50 [1]: < 500 nM

SMILES: COc1ccc(Br)c2[nH]cc(C(=O)C(=O)N3CCC(=C4c5ccccc5CCc5ccccc54)CC3)c12 [Compound 1006]
- EC50: 95.3 nM
- EC50 [1]: < 500 nM

SMILES: O=C(C(=O)N1CCC(=C2c3ccccc3CCc3ccccc32)CC1)c1c[nH]c2c(Br)ccc(F)c12 [Compound 1007]
- EC50 [1]: > 500 nM

SMILES: O=C(C(=O)N1CCC(=C2c3ccc(Cl)cc3CCc3cccnc32)CC1)c1c[nH]c2c(Br)ccc(F)c12 [Compound 1008]
- EC50 [1]: > 500 nM

SMILES: COc1cnc(-n2cnc(C)n2)c2[nH]cc(C(=O)C(=O)N3CCC(=C4c5ccccc5CCc5ccccc54)CC3)c12 [Compound 1009]
- EC50: 3.72 nM
- EC50 [1]: < 500 nM

SMILES: COc1cnc(-n2cnc(C)n2)c2[nH]cc(C(=O)C(=O)N3CCC(=C4c5ccc(Cl)cc5CCc5cccnc54)CC3)c12 [Compound 1010]
- EC50 [1]: < 500 nM
